# Laboratory results taken from patent publication US11952337B2, “Bioenergetically active esters for health and disease” (University of Kansas, priority 2018, dated 2024).
# “Also recorded” adds a separate entry of the source.
# How the values were obtained:
# SH-SY5Y cells [1] = test: Glycolysis flux (ECAR), Seahorse Extracellular Flux analyzer; type: cell-based, human
# Method: (§1) In these experiments, oligomycin, FCCP, rotenone/antimycin, and 2-deoxyglucose were used to determine the proportion of oxygen that was consumed as part of the mitochondrial “leak” and “ATP production”; maximum and spare flux rates were also determined using standard established flux analysis protocols. […] FIG. 1D schematically summarizes this pathway.
# (§2) For these measurements, oligomycin, FCCP, and rotenone/antimycin were used to determine mitochondrial respiration leak rates, the maximum oxygen consumption rate, and the non-mitochondrial oxygen consumption rate. […] The dose-response was logarithmic over a test range of 0.1 to 2 mM (FIG. 4). FIG. 3A illustrates respiration peaking at ˜40% enhancement, which is the maximum possible when mitochondria are chemically uncoupled.
# [2] = mice, cited from earlier work
# [3] = in solution, especially in the presence of amino acids; cited from earlier work
# [4] = cited from earlier work
# SH-SY5Y cells [5] = test: Respiration / oxygen consumption rate (OCR), Seahorse Extracellular Flux analyzer; type: cell-based, human; conditions: for Effect on respiration (OCR), in words: SH-SY5Y cultured neuronal cells; for Increase of cellular respiration and/or glycolysis, near maximum possible levels: preliminary testing, FIGS. 2 and 3; for ATP-linked Respiration / Change in OCR post injection (1) / Maximum OCR / Post-Oligomycin (Leak Rate) OCR: average of three experiments
# Method: as §1, §2
smiles,measurement,setting,value
"O=C(O)CC(=O)C(=O)O [OAA, 2-oxosuccinic acid]",Increase in glycolysis flux capacity,"SH-SY5Y cells [1]; 2 mM OAA, SH-SY5Y, FIG. 1B",about 50%
same,Effect on glycolysis flux,"SH-SY5Y cells [1]; 2 mM, SH-SY5Y, FIG. 1B",enhances rather than impedes glycolysis flux
same,Brain changes,[2]; 1 g/kg/day and 2 g/kg/day,induced unequivocal brain changes
same,Activity of NFκB transcription factor (neuroinflammation),[2]; intraperitoneal (IP) injection,lessened activity
same,Hippocampal neurogenesis,[2]; intraperitoneal (IP) injection,increased hippocampal neurogenesis
same,Insulin pathway signaling in brain,[2]; intraperitoneal (IP) injection,enhanced insulin pathway signaling
same,Mitochondrial biogenesis parameters in brain,[2]; intraperitoneal (IP) injection,promoted mitochondrial biogenesis parameters
same,Decarboxylation rate into pyruvate,[3],~1 %/min
same,Safety profile,"[4]; AD clinical study, doses up to 1 gram BID",excellent safety profile
same,Plasma level increase,"[4]; PK study, 100 mg BID, AD participants",did not reveal a reliable plasma level increase
same,Increase in cellular respiration,"SH-SY5Y cells [5]; OAA treatment, SH-SY5Y, FIG. 1C",about 50%
same,"Effect on respiration (OCR), in words",SH-SY5Y cells [5],increase aspects of mitochondrial respiration flux
"CC(CC(=O)O)OC(=O)CC(=O)C(=O)OC(C)CC(=O)O (centres unmarked) [OAA(BHB)2, 3,3′-((2-oxosuccinyl)bis(oxy))dibutyric acid]",Increase in cell respiration,"SH-SY5Y cells [5]; 1-mM dose, SH-SY5Y, FIG. 2, averages of three experiments",~30%
same,"Effect on respiration (OCR), in words",SH-SY5Y cells [5],increases respiration
same,"Increase of cellular respiration and/or glycolysis, near maximum possible levels",SH-SY5Y cells [5],~40%
"CC(O)C(=O)O (centres unmarked) [lactate, reference compound]","Effect on respiration, in words",SH-SY5Y cells [5]; experiments not further specified,effectively promote respiration
"CC(O)COC(=O)CC(=O)C(=O)OCC(C)O (centres unmarked) [OAA(PG)2, Bis(2-hydroxypropyl) 2-oxosuccinate]",Effect on glycolysis (ECAR),"SH-SY5Y cells [1]; 1, 2 and 5 mM OAA(PG)2, SH-SY5Y, FIG. 3B",without concomitantly creating a statistical reduction in the glycolysis flux; also recorded: insignificant effect on glycolysis
same,ATP-linked Respiration,"SH-SY5Y cells [5]; 0.1 mM, SH-SY5Y",50.1%
same,Change in OCR post injection (1),"SH-SY5Y cells [5]; 0.1 mM, SH-SY5Y",101.7%
same,Maximum OCR,"SH-SY5Y cells [5]; 0.1 mM, SH-SY5Y",98.92%
same,Post-Oligomycin (Leak Rate) OCR,"SH-SY5Y cells [5]; 0.1 mM, SH-SY5Y",51.58%
same,ATP-linked Respiration,"SH-SY5Y cells [5]; 0.25 mM, SH-SY5Y",50.66%
same,Change in OCR post injection (1),"SH-SY5Y cells [5]; 0.25 mM, SH-SY5Y",101.1%
same,Maximum OCR,"SH-SY5Y cells [5]; 0.25 mM, SH-SY5Y",93.08%
same,Post-Oligomycin (Leak Rate) OCR,"SH-SY5Y cells [5]; 0.25 mM, SH-SY5Y",50.46%
same,ATP-linked Respiration,"SH-SY5Y cells [5]; 0.5 mM, SH-SY5Y",44.78%
same,Change in OCR post injection (1),"SH-SY5Y cells [5]; 0.5 mM, SH-SY5Y",103.9%
same,Maximum OCR,"SH-SY5Y cells [5]; 0.5 mM, SH-SY5Y",93.62%
same,Post-Oligomycin (Leak Rate) OCR,"SH-SY5Y cells [5]; 0.5 mM, SH-SY5Y",59.15%
same,ATP-linked Respiration,"SH-SY5Y cells [5]; 1 mM, SH-SY5Y",52.7%
same,Change in OCR post injection (1),"SH-SY5Y cells [5]; 1 mM, SH-SY5Y",106.5%
same,Maximum OCR,"SH-SY5Y cells [5]; 1 mM, SH-SY5Y",81.46%
same,Post-Oligomycin (Leak Rate) OCR,"SH-SY5Y cells [5]; 1 mM, SH-SY5Y",53.8%
same,ATP-linked Respiration,"SH-SY5Y cells [5]; 2 mM, SH-SY5Y",68.89%
same,Change in OCR post injection (1),"SH-SY5Y cells [5]; 2 mM, SH-SY5Y",119.8%
same,Maximum OCR,"SH-SY5Y cells [5]; 2 mM, SH-SY5Y",91.73%
same,Post-Oligomycin (Leak Rate) OCR,"SH-SY5Y cells [5]; 2 mM, SH-SY5Y",50.86%
same,"Effect on respiration (OCR), in words",SH-SY5Y cells [5],enhance respiration
same,Peak enhancement of respiration,"SH-SY5Y cells [5]; SH-SY5Y, FIG. 3A, maximum possible when mitochondria are chemically uncoupled",~40%
same,"Increase of cellular respiration and/or glycolysis, near maximum possible levels",SH-SY5Y cells [5],~40%
same,Shape of dose-response of respiration,"SH-SY5Y cells [5]; test range of 0.1 to 2 mM, FIG. 4",logarithmic
